Drawing on US20260327191A1, “GSK3a INHIBITORS AND METHODS OF USE THEREOF” (Blueprint Medicines Corporation, priority 2023, published 2026), this text covers IC50 for ten molecules.

In one assay the target is T1, human GSK3α (Homo sapiens, UniProt P49840).
T1 construct: Full length human GSK3α or GSK3B expressed as N-terminal GST fusion proteins; GST (N); purchased Carna Biosciences (Japan); host or cells: baculovirus host
The assay is described as follows: In vitro enzymatic activity assay, GSK3α. It counts as biochemical. The note with it: 1.0 mM ATP, 1.0 μM peptide substrate, 120 min, 25° C, read-out: Enzyme GSK3α (IC50). How it is done: (§1) Full length human GSK3α or GSK3B expressed as N-terminal GST fusion proteins in baculovirus host were purchased from Carna Biosciences (Japan). The kinase was pre-incubated with ATP (adenosine-5′-triphosphate) for 45 min, then incubated with tested compounds for another 45 min in assay buffer that contains 100 mM HEPES (N-2-hydroxyethylpiperazine-N′-2-ethanesulfonic acid), pH 7.5, 10 mM MgCl2, 1.0 mM DTT, and 0.015% Briji-35. […] Percent inhibition was plotted against compound concentration to generate 10-point dose response curve with 3-fold serial dilution starting from 10 μM. IC50 value was determined from the 4-parameter logistic curve fitting.

A further assay concerns the target T2, GSK3A (Homo sapiens, UniProt P49840).
T2 construct: expressed in transfected cells
The assay is described as follows: NanoBRET cellular target engagement assay, Nanoluc-GSK3A in HEK293 cells. It counts as cell-based. The note with it: NanoBRET GSK3α IC50, HEK293 cells, tracer K-8, 2 hours, 37° C. The procedure: (§2) In the assay, HEK293 cells stably expressing either Nanoluc-GSK3A or Nanoluc-GSK3B were maintained in culture media and seeded, using a multidrop dispenser, at a density of 5×10^3 cells per well in 384-well white plates with 100 ng/ml doxycycline (Sigma) overnight.
(§3) Compound was first diluted in DMSO to generate a 9-point serial dilution then diluted to 10× final concentration in Opti-MEM™ (Gibco). After overnight incubation, cell medium was aspirated from the seeded cells using a microplate automatic washer, then 27 μL of pre-warmed Opti-MEM™ with kinase tracer (K-8) and 3 μL of Opti-MEM™ diluted DMSO or compounds were added per well. Plates were protected from light, mixed in an orbital shaker for 3 min at RT and incubated at 37° C., 5% CO2 in a humidified incubator for 2 hours. After acclimation at RT for 15 min, 15 μL of 3× complete NanoBRET™ Nano-Glo Substrate/Inhibitor (Promega) was added per well. Plates were mixed in an orbital shaker for 3 min at RT and incubated for an additional 30 min. Donor emission at 460 nm and acceptor emission at 647 nm were measured in EnVision multilabel plate reader (Perkin Elmer).
Background: BRET reads energy transfer from a luciferase to a nearby fluorophore.

The target of assay [1] is T3, GSK3B (Homo sapiens, UniProt P49841). Kind of assay: NanoBRET cellular target engagement assay, Nanoluc-GSK3B in HEK293 cells. The format is cell-based. Further details: expressed in transfected cells. As to conditions: NanoBRET GSK3β IC50, HEK293 cells, tracer K-8, 2 hours, 37° C. How it is done:
as §2, §3

The target in assay [2] is T3, GSK3B. Kind of assay: In vitro enzymatic activity assay, GSK3β. It counts as biochemical. Details: Full length human GSK3α or GSK3B expressed as N-terminal GST fusion proteins; GST (N); purchased Carna Biosciences (Japan); host or cells: baculovirus host. The note with it: 1.0 mM ATP, 1.0 μM peptide substrate, 120 min, 25° C, read-out: Enzyme GSK3β (IC50). How it is done: as §1

T1 sequence (P49840 whole entry, the tested form may be a part): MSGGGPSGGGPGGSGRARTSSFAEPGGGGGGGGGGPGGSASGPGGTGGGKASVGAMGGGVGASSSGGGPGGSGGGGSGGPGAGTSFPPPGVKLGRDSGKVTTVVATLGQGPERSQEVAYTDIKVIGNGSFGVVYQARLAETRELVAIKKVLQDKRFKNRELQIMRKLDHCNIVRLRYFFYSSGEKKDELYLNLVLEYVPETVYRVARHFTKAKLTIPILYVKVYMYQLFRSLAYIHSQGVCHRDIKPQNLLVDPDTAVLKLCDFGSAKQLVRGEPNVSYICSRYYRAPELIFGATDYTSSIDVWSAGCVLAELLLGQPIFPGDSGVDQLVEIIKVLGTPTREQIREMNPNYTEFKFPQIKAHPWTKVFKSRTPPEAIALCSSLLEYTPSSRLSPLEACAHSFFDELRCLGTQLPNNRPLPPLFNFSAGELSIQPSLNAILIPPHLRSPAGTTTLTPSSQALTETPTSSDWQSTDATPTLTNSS
T2 sequence (P49840 whole entry): as the sequence (P49840 whole entry, the tested form may be a part) above
T3 sequence (P49841 whole entry): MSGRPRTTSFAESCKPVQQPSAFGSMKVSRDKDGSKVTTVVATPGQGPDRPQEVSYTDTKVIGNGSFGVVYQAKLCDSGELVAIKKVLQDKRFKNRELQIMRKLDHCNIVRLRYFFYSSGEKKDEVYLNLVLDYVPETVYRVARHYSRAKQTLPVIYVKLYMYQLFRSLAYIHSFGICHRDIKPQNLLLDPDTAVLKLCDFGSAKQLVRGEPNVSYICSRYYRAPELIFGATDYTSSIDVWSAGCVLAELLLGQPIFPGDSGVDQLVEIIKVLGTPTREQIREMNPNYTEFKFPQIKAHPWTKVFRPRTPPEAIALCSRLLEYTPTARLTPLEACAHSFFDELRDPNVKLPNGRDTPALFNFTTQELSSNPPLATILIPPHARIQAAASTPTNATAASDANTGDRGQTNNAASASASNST

Regarding `CNC(C)c1cncc(NC(=O)c2c(N)ncn(-c3c(Cl)cc(Cl)cc3Cl)c2=O)c1` (single isomer, unassigned) [Example 12, (R)-4-amino-N-(5-(1-(methylamino)ethyl)pyridin-3-yl)-6-oxo-1-(2,4,6-trichlorophenyl)-1,6-dihydropyrimidine-5-carboxamide or (S)-4-amino-N-(5-(1-(methylamino)ethyl)pyridin-3-yl)-6-oxo-1-(2,4,6-trichlorophenyl)-1,6-dihydropyrimidine-5-carboxamide], the IC50 at human GSK3α was 3.8 nM; against GSK3A, 2.4 nM; against GSK3B [1], 141 nM; at GSK3B [2], 199 nM.
In the same order, the values of `CNC(C)c1cncc(NC(=O)c2c(N)ncn(-c3c(Cl)cc(Cl)cc3Cl)c2=O)c1` (single isomer, unassigned) [Example 13, (S)-4-amino-N-(5-(1-(methylamino)ethyl)pyridin-3-yl)-6-oxo-1-(2,4,6-trichlorophenyl)-1,6-dihydropyrimidine-5-carboxamide or (R)-4-amino-N-(5-(1-(methylamino)ethyl)pyridin-3-yl)-6-oxo-1-(2,4,6-trichlorophenyl)-1,6-dihydropyrimidine-5-carboxamide] are 17.7 nM, 9.8 nM, 503 nM and 1010 nM.
`[2H]C([2H])([2H])NC(C)c1cncc(NC(=O)c2c(N)ncn(-c3c(C)cc(C(F)(F)F)cc3Cl)c2=O)c1` (single isomer, unassigned) [Example 16, (R)-4-amino-1-((S)-2-chloro-6-methyl-4-(trifluoromethyl)phenyl)-N-(5-(1-((methyl-d3)amino)ethyl)pyridin-3-yl)-6-oxo-1,6-dihydropyrimidine-5-carboxamide or (S)-4-amino-1-((S)-2-chloro-6-methyl-4-(trifluoromethyl)phenyl)-N-(5-(1-((methyl-d3)amino)ethyl)pyridin-3-yl)-6-oxo-1,6-dihydropyrimidine-5-carboxamide]: the IC50 at human GSK3α was determined as 4.1 nM; at GSK3A, 1.9 nM; at GSK3B [1] it was 132 nM; at GSK3B [2] it was 255 nM.
Turning to `CNC(C)c1cncc(NC(=O)c2c(N)ncn(-c3c(Cl)cc(OC)cc3Cl)c2=O)c1` (single isomer, unassigned) [Example 18, (S)-4-amino-1-(2,6-dichloro-4-methoxyphenyl)-N-(5-(1-(methylamino)ethyl)pyridin-3-yl)-6-oxo-1,6-dihydropyrimidine-5-carboxamide or (R)-4-amino-1-(2,6-dichloro-4-methoxyphenyl)-N-(5-(1-(methylamino)ethyl)pyridin-3-yl)-6-oxo-1,6-dihydropyrimidine-5-carboxamide], the IC50 amounted to 11.9 nM at human GSK3α, 7.1 nM at GSK3A, 429 nM against GSK3B [1] and 622 nM at GSK3B [2].
In the same order, the values of `CNC(C)c1cncc(NC(=O)c2c(N)ncn(-c3c(Cl)cc(OC)cc3Cl)c2=O)c1` (single isomer, unassigned) [Example 19, (R)-4-amino-1-(2,6-dichloro-4-methoxyphenyl)-N-(5-(1-(methylamino)ethyl)pyridin-3-yl)-6-oxo-1,6-dihydropyrimidine-5-carboxamide or (S)-4-amino-1-(2,6-dichloro-4-methoxyphenyl)-N-(5-(1-(methylamino)ethyl)pyridin-3-yl)-6-oxo-1,6-dihydropyrimidine-5-carboxamide] are 3.2 nM, 3.5 nM, 180 nM and 232 nM.
The corresponding values for `CCOc1cc(Cl)c(-n2cnc(N)c(C(=O)Nc3cncc(C(C)NC)c3)c2=O)c(Cl)c1` (single isomer, unassigned) [Example 24, (R)-4-amino-1-(2,6-dichloro-4-ethoxyphenyl)-N-(5-(1-(methylamino)ethyl)pyridin-3-yl)-6-oxo-1,6-dihydropyrimidine-5-carboxamide or (S)-4-amino-1-(2,6-dichloro-4-ethoxyphenyl)-N-(5-(1-(methylamino)ethyl)pyridin-3-yl)-6-oxo-1,6-dihydropyrimidine-5-carboxamide] are 4.1 nM, 2.8 nM, 147 nM and 298 nM.
The corresponding values for `COCc1cc(C)c(-n2cnc(N)c(C(=O)Nc3cncc4c3CCC4(C)N)c2=O)c(C)c1` (single isomer, unassigned) [Example 27, (R)-4-amino-N-(7-amino-7-methyl-6,7-dihydro-5H-cyclopenta[c]pyridin-4-yl)-1-(4-(methoxymethyl)-2,6-dimethylphenyl)-6-oxo-1,6-dihydropyrimidine-5-carboxamide or (S)-4-amino-N-(7-amino-7-methyl-6,7-dihydro-5H-cyclopenta[c]pyridin-4-yl)-1-(4-(methoxymethyl)-2,6-dimethylphenyl)-6-oxo-1,6-dihydropyrimidine-5-carboxamide] are 2.4 nM, 1.7 nM, 42.5 nM and 54.2 nM.
Turning to `COC[C@](C)(N)c1cncc(NC(=O)c2c(N)ncn(-c3c(Cl)cc(OC)cc3Cl)c2=O)c1` (single isomer, unassigned) [Example 31, (R)-4-amino-N-(5-(2-amino-1-methoxypropan-2-yl)pyridin-3-yl)-1-(2,6-dichloro-4-methoxyphenyl)-6-oxo-1,6-dihydropyrimidine-5-carboxamide or (S)-4-amino-N-(5-(2-amino-1-methoxypropan-2-yl)pyridin-3-yl)-1-(2,6-dichloro-4-methoxyphenyl)-6-oxo-1,6-dihydropyrimidine-5-carboxamide], the IC50 was 6.9 nM at human GSK3α, 5 nM on GSK3A, 418 nM on GSK3B [1] and 405 nM at GSK3B [2].
In the same order, the values of `COc1cc(Cl)c(-n2cnc(N)c(C(=O)Nc3cncc([C@@H]4NC[C@H]5CCC[C@H]54)c3)c2=O)c(Cl)c1` (single isomer, unassigned) [Example 32, 4-amino-1-(2,6-dichloro-4-methoxyphenyl)-N-(5-((1R,3aS,6aR)-octahydrocyclopenta[c]pyrrol-1-yl)pyridin-3-yl)-6-oxo-1,6-dihydropyrimidine-5-carboxamide or 4-amino-1-(2,6-dichloro-4-methoxyphenyl)-N-(5-((1S,3aR,6aS)-octahydrocyclopenta[c]pyrrol-1-yl)pyridin-3-yl)-6-oxo-1,6-dihydropyrimidine-5-carboxamide] are 6.3 nM, 2.6 nM, 158 nM and 269 nM.
The corresponding values for `CCC(N)c1cncc(NC(=O)c2c(N)ncn(-c3c(C)cc(COC)cc3C)c2=O)c1` (single isomer, unassigned) [Example 35, (R)-4-amino-N-(5-(1-aminopropyl)pyridin-3-yl)-1-(4-(methoxymethyl)-2,6-dimethylphenyl)-6-oxo-1,6-dihydropyrimidine-5-carboxamide or (S)-4-amino-N-(5-(1-aminopropyl)pyridin-3-yl)-1-(4-(methoxymethyl)-2,6-dimethylphenyl)-6-oxo-1,6-dihydropyrimidine-5-carboxamide] are 14.7 nM, 6.2 nM, 412 nM and 693 nM.

The IC50 is the midpoint of a concentration-inhibition curve.
